Reference: patent US4578383A, “CL 1565 antibiotic compounds” (priority 1984, dated 1986)
Where two headings read alike, the source gives them in different places.

Tested on: P388 Lymphatic Leukemia
Type: in vivo, Mice
Description: The test method used is based on that described in Cancer Chemother. Reports 3:1-87 (part 3), 1972.

[1] = 3.1 mg/kg/day (CL 1565-T and CL 1565-B tables)
[2] = 6.3 mg/kg/day (CL 1565-T and CL 1565-B tables)
[3] = 12.5 mg/kg/day (CL 1565-T and CL 1565-B tables)

Row | Compound | T/C × 100 [1] | T/C × 100 [2] | T/C × 100 [3] | T/C × 100 (toxicity noted) (25.0 mg/kg/day (CL 1565-B table)) | T/C × 100 (25.0 mg/kg/day (CL 1565-T table))
1 | CC=CC=CC=CC(O)CC(OP(=O)(O)O)C(C)(O)C=CC1CC=CC(=O)O1 (centres unmarked) [CL 1565-B] | 129 | 142 | 178 | Toxic | –
2 | CC(O)(C=CC1OC(=O)C=CC1O)C(CC(O)C=CC=CC=CCO)OP(=O)(O)O (centres unmarked) [CL 1565-T] | 147 | 142 | 147 | – | 157
